Assays:
[1] = target: T1, bovine alkaline phosphatase (CIP) (Bos taurus, UniProt P19111); assay: Evaluation of CIP-protective activity under freeze-dried condition; type: biochemical; settings: for CIP activity after freeze-drying: freeze-dried with 3% additive
T1 construct: purchased New England Biolabs
Protocol: Test samples 1 to 12 containing bovine alkaline phosphatase (CIP) were prepared as follows and protein-protective activity of various kinds of added sugar under freeze-dried condition was evaluated.
After bovine alkaline phosphatase (10 units/μL, manufactured by New England Biolabs) was diluted to 1/40 with TBS (manufactured by Takara Bio Inc.), it was subjected to dialysis for 2 hours at 4° C. within TBS of an amount 1,000 times the diluted enzyme solution to remove glycerol. 40 μL of TBS containing 2% trehalose (TRH) was added to and mixed with 40 μL of the enzyme solution after dialysis and the mixture was frozen at −80° C. for 10 minutes. It was then freeze-dried for 20 hours with a freeze dryer (FLEXI-DRY, manufactured by FTS systems INC., Warminster) connected to a vacuum pump (P65D, manufactured by PHIL Sato Vac INC.), preparing freeze-dried product of enzyme with 1% TRH.
Freeze-dried product of enzyme with 3% TRH was prepared in a similar manner to the preparation method of test sample 4 except that the final concentration of trehalose was changed to 3% in the preparation method of test sample 4. […]
Freeze-dried product of enzyme with 3% 4TA was prepared in a similar manner to the preparation method of test sample 5 except that trehalose was changed to 4-trehalosamine (4TA) in the preparation method of test sample 5. […]
Freeze-dried product of enzyme with 3% MLT was prepared in a similar manner to the preparation method of test sample 5 except that trehalose was changed to maltose (MLT) in the preparation method of test sample 5. […]
Freeze-dried product of enzyme with 3% SCR was prepared in a similar manner to the preparation method of test sample 5 except that trehalose was changed to sucrose (SCR) in the preparation method of test sample 5.
Freeze-dried product of enzyme with 3% GOL was prepared in a similar manner to the preparation method of test sample 5 except that trehalose was changed to glycerol (GOL) in the preparation method of test sample 5.
80 μL of water was added to each of the freeze-dried products of test samples 3 to 12 and the mixture was diluted to 1/100 with TBS. Test samples 1 and 2 were diluted to 1/100 with TBS. 10 μL of each of the diluted test samples 1 to 12 and 20 μL of 0.1 M p-nitrophenylphosphate (pNPP)-TBS solution were added to 70 μL of TBS, and enzyme reaction was left to take place at 37° C. for 1 hour. After the reaction, absorbance at 420 nm was measured with a microplate reader (Cytation5, manufactured by Bio Tek Instruments) and CIP activity was measured by the amount of p-nitrophenol as enzyme reaction product (n=3, mean±S.D.).

Escherichia coli K-12 = assay: Evaluation of Escherichia coli protective activity in freeze-dried condition; type: cell-based; settings: for Numbers of live bacterial cells (relative numbers): Escherichia coli freeze-dried with 6% aqueous solution (final concentration 3%), test sample 3 (FD) = 1
Protocol: Using test samples 1 to 8 containing Escherichia coli prepared in the following manner, microorganism-protective activity with various kinds of sugar in a freeze-dried condition was evaluated.
Frozen stock of Escherichia coli (Escherichia coli K-12, owned by the Microbial Chemistry Research Foundation) was inoculated in 10 mL of Luria-Bertani (LB) culture medium (manufactured by Difco) and cultured at 37° C. for 24 hours while shaking it at 220 rpm. After culture, it was centrifuged at 3,000×g for 5 minutes, washed once with 10 mL of water, and then suspended in 10 mL of water, thus obtaining Escherichia coli suspension. 50 μL of water was added to and mixed with 50 μL of this Escherichia coli suspension and the mixture was left to stand at 4° C. for 12 hours, preparing control (NF).
After Escherichia coli suspension was prepared in a similar manner to test sample 1, 50 μL of 6% aqueous solution of trehalose was added to and mixed with 50 μL of the Escherichia coli suspension, and the mixture was frozen at −80° C. for 1 hour. It was then freeze-dried for 12 hours with a freeze dryer (FLEXI-DRY, manufactured by FTS systems INC., Warminster) connected to a vacuum pump (P65D, manufactured by PHIL Sato Vac INC.), preparing freeze-dried product (TRH) of Escherichia coli with TRH.
Freeze-dried product (4TA) of Escherichia coli with 4TA was obtained in a similar manner to the preparation method of test sample 4 except that trehalose was changed to 4-trehalosamine (4TA) in the preparation method of test sample 4.
Freeze-dried product (MLT) of Escherichia coli with MLT was obtained in a similar manner to the preparation method of test sample 4 except that trehalose was changed to maltose (MLT) in the preparation method of test sample 4.
Freeze-dried product (SCR) of Escherichia coli with SCR was obtained in a similar manner to the preparation method of test sample 4 except that trehalose was changed to sucrose (SCR) in the preparation method of test sample 4.
Freeze-dried product (GOL) of Escherichia coli with GOL was obtained in a similar manner to the preparation method of test sample 4 except that trehalose was changed to glycerol (GOL) in the preparation method of test sample 4.
For test samples 1 and 2, serial suspensions were made by diluting them to 1/10 with water. 100 μL of water was added to each of the freeze-dried products of test samples 3 to 8 and diluted to 1/10 with water to make their serial suspensions. 80 μL of water was added to 10 μL of each diluted solution.
In a 6-well microplate, 2% Agar-LB was prepared at 3 mL/well, and 90 μL of each diluted solution was inoculated on the 2% Agar-LB and cultured at 37° C. for 24 hours.
Wells in which the number of colonies was measurable were selected and the numbers (relative numbers) of live bacterial cells per well on test samples 1, 2, and 4 to 8 when the number of live bacterial cells per well on test sample 3 (FD) was “1” were calculated in consideration of the dilution concentrations of those test samples.

T1 sequence (P19111 20-506): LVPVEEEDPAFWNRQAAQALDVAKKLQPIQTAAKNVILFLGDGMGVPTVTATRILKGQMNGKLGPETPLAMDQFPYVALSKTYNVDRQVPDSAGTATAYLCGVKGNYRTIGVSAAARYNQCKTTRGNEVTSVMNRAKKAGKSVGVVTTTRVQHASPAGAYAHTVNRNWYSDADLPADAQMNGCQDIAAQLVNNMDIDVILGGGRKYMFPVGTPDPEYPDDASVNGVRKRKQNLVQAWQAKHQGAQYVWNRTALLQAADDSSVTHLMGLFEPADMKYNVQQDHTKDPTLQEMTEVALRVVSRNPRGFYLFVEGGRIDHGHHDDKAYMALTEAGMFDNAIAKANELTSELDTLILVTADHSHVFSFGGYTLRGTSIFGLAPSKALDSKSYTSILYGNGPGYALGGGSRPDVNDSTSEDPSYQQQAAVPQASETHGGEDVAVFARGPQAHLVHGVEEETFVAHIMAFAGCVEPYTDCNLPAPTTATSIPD

CIP activity after freeze-drying [1]	SMILES	Numbers of live bacterial cells (relative numbers) (Escherichia coli K-12)	CIP protection effect compared to other sugars ([1]; freeze-dried)	protective effect on microorganisms, comparison (Escherichia coli K-12; Escherichia coli, freeze-dried)
good activity was maintained	OC[C@H]1O[C@H](O[C@H]2[C@H](O)[C@@H](O)C(O)O[C@@H]2CO)[C@H](O)[C@@H](O)[C@@H]1O (mixture of isomers) [maltose]	10	–	–
enzyme activity significantly dropped	OCC(O)CO [GOL, glycerol]	0	–	–
good activity was maintained	OC[C@H]1O[C@@](CO)(O[C@H]2O[C@H](CO)[C@@H](O)[C@H](O)[C@H]2O)[C@@H](O)[C@@H]1O [sucrose]	100	–	–

SMILES	CIP activity after freeze-drying [1]	Numbers of live bacterial cells (relative numbers) (Escherichia coli K-12)	CIP protection effect compared to other sugars ([1]; freeze-dried)	protective effect on microorganisms, comparison (Escherichia coli K-12; Escherichia coli, freeze-dried)
N[C@H]1[C@H](O)[C@@H](O)[C@@H](O[C@H]2O[C@H](CO)[C@@H](O)[C@H](O)[C@H]2O)O[C@@H]1CO [4-trehalosamine]	good activity was maintained	100	high compared to the other sugars	stronger than when the other sugars were added
OC[C@H]1O[C@H](O[C@H]2O[C@H](CO)[C@@H](O)[C@H](O)[C@H]2O)[C@H](O)[C@@H](O)[C@@H]1O [trehalose, reference compound]	good activity was maintained	10	–	–

— patent US20250002954A1, “Novel Compound, Use Thereof, and Method for Producing Same, and Compound-Containing Composition, Method for Producing 4-Trehalosamine, and Microorganism” (Microbial Chemistry Research Foundation, priority 2021, published 2025)
